# Experimental data published in article PMC4169579, “Proteolytic Activity of Prostate-Specific Antigen (PSA) towards Protein Substrates and Effect of Peptides Stimulating PSA Activity” (PLoS ONE, 2014).
# Like-named read-outs stand apart in the source and are kept apart here.
# Columns and labels:
# [1] = biological target: T1, PSA (Homo sapiens, UniProt P07288); assay: Enzyme kinetics of PSA with chromogenic peptide substrate S-2586; assay type: biochemical; details: S-2586 0.125–5 mM, 175 nM PSA, 0.1% BSA-TBS, room temperature, mean ± SD of two experiments
# T1 construct: from tissue; host or cells: pooled human seminal fluid
# T1 sequence (P07288 25-261): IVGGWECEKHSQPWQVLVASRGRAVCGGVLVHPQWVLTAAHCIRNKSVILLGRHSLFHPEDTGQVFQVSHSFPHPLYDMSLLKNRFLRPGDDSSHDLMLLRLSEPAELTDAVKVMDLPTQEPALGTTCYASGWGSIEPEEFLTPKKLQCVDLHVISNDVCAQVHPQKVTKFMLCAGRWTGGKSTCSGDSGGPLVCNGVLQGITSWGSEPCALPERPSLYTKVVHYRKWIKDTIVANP
# Description: (§1) The major form of active PSA (isoform PSA-B) was purified from pooled human seminal fluid by immunoaffinity chromatography followed by anion exchange chromatography. Semenogelins I and II were isolated from human seminal fluid as previously described, but instead of alkylating the proteins, the reducing agent 30 mM dithiothreitol (Sigma-Aldrich, St. Louis, MO) was included in all buffers during purification. Semenogelins were stored in the purification buffer containing 2 M urea and 5 mM EDTA at −70°C. Prior to cleavage by PSA, the buffer was exchanged to 50 mM Tris, pH 7.7, containing 0.15 M NaCl (TBS), with Amicon Ultra centrifugal filter units (MW cut-off 30 kDa) (Millipore, Cork, Ireland) at 4°C, and protein concentration was determined by measuring absorbance at 280 nm.
# The proteolytic activity of PSA towards small peptide substrates was compared with two different substrates. […] The absorbance was measured at 405 nm immediately and at 5 min intervals for 30 min and fluorescence at 355/460 nm (excitation/emission) after 10 min, 20 min, 40 min, 1 h, 2 h and 4 h incubation at room temperature with a Victor 1420 Multilabel plate reader (PerkinElmer). […]
# The maximum velocity of the reaction (Vmax) and the Michaelis constant (Km), i.e., substrate concentration at which the reaction rate is half of the maximum, were evaluated for PSA with both peptide substrates using Sigma Plot 11 with the Enzyme Kinetics Module 1.3 (SYSTAT Software, Inc., San Jose, CA) and the catalytic constant (kcat), i.e., the number of substrate molecules converted to product per time unit, was calculated from the equation kcat = Vmax/[PSA]. The absorbance was converted to molar concentration with the Lambert-Beer equation (A = εcl), using the molar absorptivity of pNA (εpNA = 8800 M^−1cm^−1). Fluorescence (counts per second, cps) was transformed to molar concentrations with SigmaPlot by means of a standard curve for 7-amido-4-methylcoumarin (AMC, Sigma-Aldrich).
# [2] = biological target: T1, PSA; details: ref [15], [47]; cited from earlier work
# Text: Previously, several selective and efficient substrates for PSA have been described. We used a fluorogenic peptide substrate identified by Denmeade and coworkers (1997). […] These differences may be explained by higher activity of the highly pu ...
# [3] = tested on: HUVECs; design: method as in PMID 10702407, PMID 20713592; details: full-length galectin-3; ref [55], [72]; cited from earlier work
# [4] = tested on: HUVECs; assay: HUVEC tube formation assay on Matrigel; assay type: cell-based, human; details: two separate experiments
# Description: Human umbilical vein endothelial cells (HUVECs) were isolated from umbilical cord veins and grown in Endothelial Cell Growth Medium (Promocell, Heidelberg, Germany) with 2% Ultroser G BioSepra serum substitute (PALL BioSepra, Cergy, France) and growth factors EGF and bFGF. For tube formation, HUVECs were grown on top of Matrigel (BD Biosciences) as described previously, [29].
# To study the effect of PSA-cleaved protein fragments, 0.08 µM nidogen-1 or 0.4 µM galectin-3 (10 µg/ml each) were first incubated with 1 µM PSA for 24 h at 37°C in PBS (Lonza). Then PSA activity was blocked by one-hour incubation at room temperature with 2 µM monoclonal antibody 5C7 [38]. The mixture containing nidogen-1 or galectin-3 fragments with PSA blocked by antibody or the same amount of intact nidogen-1 or galectin-3 were added together with the cells onto gelled Matrigel and the cells were allowed to form tubular networks for 20 h. Control wells contained either PBS or 1 µM PSA. After overnight incubation, cell culture medium was collected from PBS and PSA control wells for SDS-PAGE and Western blotting. Images of tubular networks (100×magnification) were taken using an Axiovert 200 inverted light microscope connected to an AxioCam digital camera and visualized by AxioVision software (all from Zeiss, Göttingen, Germany).
# [5] = biological target: T1, PSA; assay: Proteolytic cleavage of protein substrates by PSA (SDS-PAGE, silver staining); assay type: biochemical; details: 22 h incubation, 37°C, different plasminogen preparations and PSA batches
# Description: as §1
# Protein LoBind tubes (Eppendorf AG, Hamburg, Germany) were used in all protein degradation experiments.
# PSA (0.2–1 µM) and 0.5–1 µM of each protein substrate were incubated at 37°C for 22 h in TBS buffer. During the incubation, samples of 15 µl were taken at different time points: 0 min, 10 min, 30 min, 2 h, 5 h and 22 h, and stored at −20°C before further analysis.
# Immediately after each incubation, reducing 4× SDS-loading buffer (8% SDS), containing 1 M β-mercaptoethanol or 75 mM dithiothreitol, was added to each sample and proteins were denatured at 70°C for 10 min. The samples were immediately analyzed by SDS-PAGE or frozen at −20°C. Frozen samples were heated again at 70°C before loading on the gel. The cleavage of protein substrates by PSA, i.e., the disappearance of the full-length protein bands, was quantified from scanned images of silver stained gels by the measurement of relative optical densities of the protein bands using ImageJ [40]. […]
# Proteins were visualized either by silver staining or Western blotting. […] After 30 min incubation in 0.2% AgNO3, the gel was rinsed briefly with water and proteins were detected with development solution, containing 700 µl/l of 37% formaldehyde, 0.001% sodium thiosulfate and 3% anhydrous Na2CO3. […]
# [6] = biological target: T1, PSA; details: reported to inhibit angiogenesis in vitro; ref [20]; cited from earlier work
# Description: In the present study, we compared the proteolytic activity of PSA towards several protein substrates. As shown previously, semenogelins are cleaved very effectively by PSA. Malm and coworkers (2000) reported that more than half of semenogelin I is degraded after 15 min incubation with PSA [16], [63] and we observed this after 11 min incubation. Proteolysis of the other protein substrates, i.e., fibronectin, IGFBP-3, galectin-3 and nidogen-1, took much longer, reflecting the high substrate specificity of PSA for semenogelins. […] However, the detailed mechanism of the antiangiogenic activity of PSA remains unclear. Some of the proteolytically produced fragments of extracellular matrix (ECM) proteins act as endogenous angiogenesis inhibitors and may mediate the antiangiogenic effect of PSA. […] Although plasminogen ...
substance,measurement,setting,value
"MeO-Suc-Arg-Pro-Tyr-pNA·HCl [Chromogenic substrate, chromogenic chymotrypsin substrate S-2586]",Km,"[1]; 405 nm, 5 min intervals for 30 min",5.72 ± 1.53 mM
same,kcat/Km,[1],133.4±24.6 s^−1M^−1
same,kcat,[1]; kcat = Vmax/[PSA],0.75 ± 0.07 s⁻¹
same,"kcat/Km reported previously, compared to this study",[2],somewhat lower than that we observed
galectin-3: recombinant human galectin-3,angiogenesis,[3],promote angiogenesis
same,"effect on tube formation, PSA-generated fragments","[4]; 10 µg/ml (0.08 µM nidogen-1, 0.4 µM galectin-3) precleaved by 1 µM PSA 24 h, PSA blocked by mAb 5C7, 20 h",did not have any effect on tube formation
same,"effect on tube formation, full-length protein","[4]; 10 µg/ml (0.08 µM nidogen-1, 0.4 µM galectin-3), 20 h, HUVECs on Matrigel",did not have any effect on tube formation
plasminogen: plasminogen (Calbiochem and Hyphen BioMed) and lys-plasminogen from human plasma,cleavage of plasminogen by PSA,[5],PSA did not cleave plasminogen
same,cleavage of plasminogen by PSA,[6],cleave plasminogen to angiostatin-like fragments
